Data reported in patent publication US20210024542A1 (Torcept Therapeutics, Inc., priority 2018, published 2021).
pEC50, pIC50: −log10 of the molar value.

Legend:
AsPC-1 = assay: OncoPanel cell proliferation assay, AsPC-1; conditions: Homo sapiens, ASPC1, 72 h, read-out: Cell Count IC50
Procedure: (§6) Cells were seeded into 384-well plates and incubated in a humidified atmosphere of 5% CO2 at 37° C. Compounds were added the day following cell seeding. At the same time, a time zero untreated cell plate was generated. After a 3-day incubation period, cells were fixed and stained to allow fluorescence imaging of nuclei. Compounds (1 mM stock solutions) were serially diluted in half-log steps from the highest test concentration (1 micromol), and assayed over 10 concentrations with a maximum assay concentration of 0.1% DMSO. Automated fluorescence microscopy was carried out using a Molecular Devices ImageXpress Micro XL high-content imager, and images were collected with a 4× objective. 16-bit TIFF images were acquired and analyzed with MetaXpress 5.1.0.41 software.
(§7) GI50 is the concentration needed to reduce the observed growth by half (midway between the curve maximum and the time zero value). […] In rare instances, values <0 or >10 may be observed. […] Curve-fitting, calculations, and report generation was performed using a custom data reduction engine and MathIQ based software (AIM).

CHP-212 = assay: OncoPanel cell proliferation assay, CHP-212; conditions: for Relative cell count (%) Mean: CHP-212
Procedure: as §6, §7

ST486 = assay: OncoPanel cell proliferation assay, ST486; type: cell-based, human; conditions: for Relative cell count (%) Mean: ST486
Procedure: (§1) Cells were grown in RPMI 1640, 10% FBS, 2 mM L-alanyl-L-glutamine, 1 mM Na pyruvate, or a special medium. Cells were seeded into 384-well plates and incubated in a humidified atmosphere of 5% CO2 at 37° C. Compounds were added the day following cell seeding. At the same time, a time zero untreated cell plate was generated. After a 3-day incubation period, cells were fixed and stained to allow fluorescence imaging of nuclei. Compounds (1 mM stock solutions) were serially diluted in half-log steps from the highest test concentration ([…]), and assayed over 10 concentrations with a maximum assay concentration of 0.1% DMSO. Automated fluorescence microscopy was carried out using a Molecular Devices ImageXpress Micro XL high-content imager, and images were collected with a 4× objective. 16-bit TIFF images were acquired and analyzed with MetaXpress 5.1.0.41 software.
(§2) Cell proliferation was measured by the fluorescence intensity of an incorporated nuclear dye. The output is referred to as the relative cell count, where the measured nuclear intensity is transformed to percent of control (POC) using the following formula: […]
(§3) Cellular response parameters were calculated using nonlinear regression to a sigmoidal single-site dose response model:
(§4) Where y is a response measured at concentration x, A and B are the lower and upper limits of the response, C is the concentration at the response midpoint (EC50), and D is the Hill Slope (Ref. 1).
(§5) EC50 is the test compound concentration at the curve inflection point or half the effective response (parameter C of the fitted curve solution). GI50 is the concentration needed to reduce the observed growth by half (midway between the curve maximum and the time zero value). “Cell Count Activity Area” is an estimate of the integrated area above the curve (Barretina, et al. The Cancer Cell Line Encyclopedia enables predictive modelling of anticancer drug sensitivity. Nature 483: 603-607). […] In rare instances, values <0 or >10 may be observed. […] Curve-fitting, calculations, and report generation was performed using a custom data reduction engine and MathIQ based software (AIM).

SK-N-AS = assay: OncoPanel cell proliferation assay, SK-N-AS; type: cell-based, human
Procedure: as §1, §2, §3, §4, §5

U-87 MG = assay: OncoPanel cell proliferation assay, U-87 MG; type: cell-based, human
Procedure: as §1, §2, §3, §4, §5

TF-1 = assay: OncoPanel cell proliferation assay, TF-1; type: cell-based, human; conditions: for Relative cell count (%) Mean: TF-1
Procedure: as §1, §2, §3, §4, §5

SW579 = assay: OncoPanel cell proliferation assay, SW579; type: cell-based, human; conditions: for Relative cell count (%) Mean: SW579
Procedure: as §1, §2, §3, §4, §5

[1] = Homo sapiens, 72 h, 3-day incubation, read-out: Cell Count EC50
[2] = Homo sapiens, 72 h, 3-day incubation, read-out: Cell Count GI50
[3] = Homo sapiens, 72 h, 3-day incubation, read-out: Cell Count IC50

CO[C@H]1C[C@@H]2CC[C@@H](C)[C@@](O)(O2)C(=O)C(=O)N2CCCC[C@H]2C(=O)O[C@H]([C@H](C)C[C@@H]2C[C@@H]3C[C@H]2C[C@H]3O)CC(=O)[C@H](C)/C=C(\C)[C@@H](O)[C@@H](OC)C(=O)[C@H](C)C[C@H](C)/C=C/C=C/C=C/1C [Formula I, 37R-hydroxynorbornylrapamycin]
pIC50 (AsPC-1): < 6.00 | Cell Count Activity Area (CHP-212; CHP-212, scale 0-10): 3.70 | Relative cell count (%) Mean (CHP-212; 1.00E−01 microM): 49.6% | Relative cell count (%) Mean (CHP-212; 1.00E−02 microM): 52.8% | Relative cell count (%) Mean (CHP-212; 1.00E−03 microM): 56.6% | Relative cell count (%) Mean (CHP-212; 1.01E−04 microM): 70.6% | Relative cell count (%) Mean (CHP-212; 3.16E−01 microM): 45.9% | Relative cell count (%) Mean (CHP-212; 3.17E−02 microM): 49.0% | Relative cell count (%) Mean (CHP-212; 3.17E−03 microM): 55.3% | Relative cell count (%) Mean (CHP-212; 3.18E−04 microM): 63.3% | Relative cell count (%) Mean (CHP-212; 3.18E−05 microM): 86.7% | pEC50 (CHP-212; Homo sapiens, CHP-212, 72 h, read-out: Cell Count EC50): 10.04 | GI50 (CHP-212; Homo sapiens, CHP-212, 72 h, read-out: Cell Count GI50): 0.125 nM | pIC50 (CHP-212; Homo sapiens, CHP-212, 72 h, read-out: Cell Count IC50): 7.71 | pEC50 (ST486; Homo sapiens, 72 h, ST486, 3-day incubation, read-out: Cell Count EC50): 9.89 | GI50 (ST486; Homo sapiens, 72 h, ST486, 3-day incubation, read-out: Cell Count GI50): 0.226 nM | pIC50 (ST486; Homo sapiens, 72 h, ST486, 3-day incubation, read-out: Cell Count IC50): < 6.00 | Cell Count Activity Area (ST486; ST486, scale 0-10): 3.70 | Relative cell count (%) Mean (ST486; 1.00E+00 microM): 50.5% | Relative cell count (%) Mean (ST486; 1.00E−01 microM): 58.5% | Relative cell count (%) Mean (ST486; 1.00E−02 microM): 56.8% | Relative cell count (%) Mean (ST486; 1.00E−03 microM): 61.1% | Relative cell count (%) Mean (ST486; 1.01E−04 microM): 81.6% | Relative cell count (%) Mean (ST486; 3.16E−01 microM): 51.1% | Relative cell count (%) Mean (ST486; 3.17E−02 microM): 54.8% | Relative cell count (%) Mean (ST486; 3.17E−03 microM): 56.0% | Relative cell count (%) Mean (ST486; 3.18E−04 microM): 63.3% | Relative cell count (%) Mean (ST486; 3.18E−05 microM): 90.7% | Relative cell count (%) Mean (SK-N-AS; 1.00E+00 microM): 45.8% | Relative cell count (%) Mean (SK-N-AS; 1.00E−01 microM): 51.0% | Relative cell count (%) Mean (SK-N-AS; 1.00E−02 microM): 53.6% | Relative cell count (%) Mean (SK-N-AS; 1.00E−03 microM): 62.3% | Relative cell count (%) Mean (SK-N-AS; 1.01E−04 microM): 84.8% | Relative cell count (%) Mean (SK-N-AS; 3.16E−01 microM): 48.3% | Relative cell count (%) Mean (SK-N-AS; 3.17E−02 microM): 52.4% | Relative cell count (%) Mean (SK-N-AS; 3.17E−03 microM): 56.7% | Relative cell count (%) Mean (SK-N-AS; 3.18E−04 microM): 77.7% | Relative cell count (%) Mean (SK-N-AS; 3.18E−05 microM): 102.1% | pEC50 (SK-N-AS; [1]): 9.55 | GI50 (SK-N-AS; [2]): 0.826 nM | pIC50 (SK-N-AS; [3]): 8.13 | Cell Count Activity Area (SK-N-AS; scale 0-10): 3.99 | Relative cell count (%) Mean (U-87 MG; 1.00E+00 microM): 51.2% | Relative cell count (%) Mean (U-87 MG; 1.00E−01 microM): 54.5% | Relative cell count (%) Mean (U-87 MG; 1.00E−02 microM): 54.7% | Relative cell count (%) Mean (U-87 MG; 1.00E−03 microM): 64.8% | Relative cell count (%) Mean (U-87 MG; 1.01E−04 microM): 87.3% | Relative cell count (%) Mean (U-87 MG; 3.16E−01 microM): 51.6% | Relative cell count (%) Mean (U-87 MG; 3.17E−02 microM): 50.4% | Relative cell count (%) Mean (U-87 MG; 3.17E−03 microM): 58.9% | Relative cell count (%) Mean (U-87 MG; 3.18E−04 microM): 71.8% | Relative cell count (%) Mean (U-87 MG; 3.18E−05 microM): 93.7% | pEC50 (U-87 MG; [1]): 9.69 | GI50 (U-87 MG; [2]): 0.509 nM | pIC50 (U-87 MG; [3]): 7.31 | Cell Count Activity Area (U-87 MG; scale 0-10): 3.92 | pEC50 (TF-1; Homo sapiens, 72 h, TF-1, 3-day incubation, read-out: Cell Count EC50): < 6.00 | GI50 (TF-1; Homo sapiens, 72 h, TF-1, 3-day incubation, read-out: Cell Count GI50): > 1000 nM | pIC50 (TF-1; Homo sapiens, 72 h, TF-1, 3-day incubation, read-out: Cell Count IC50): < 6.00 | Cell Count Activity Area (TF-1; TF-1, scale 0-10): 1.64 | Relative cell count (%) Mean (TF-1; 1.00E+00 microM): 80.6% | Relative cell count (%) Mean (TF-1; 1.00E−01 microM): 80.1% | Relative cell count (%) Mean (TF-1; 1.00E−02 microM): 81.1% | Relative cell count (%) Mean (TF-1; 1.00E−03 microM): 87.4% | Relative cell count (%) Mean (TF-1; 1.01E−04 microM): 97.8% | Relative cell count (%) Mean (TF-1; 3.16E−01 microM): 80.1% | Relative cell count (%) Mean (TF-1; 3.17E−02 microM): 81.3% | Relative cell count (%) Mean (TF-1; 3.17E−03 microM): 88.0% | Relative cell count (%) Mean (TF-1; 3.18E−04 microM): 88.0% | Relative cell count (%) Mean (TF-1; 3.18E−05 microM): 96.7% | pEC50 (SW579; Homo sapiens, 72 h, SW579, 3-day incubation, read-out: Cell Count EC50): 10.21 | GI50 (SW579; Homo sapiens, 72 h, SW579, 3-day incubation, read-out: Cell Count GI50): 0.152 nM | pIC50 (SW579; Homo sapiens, 72 h, SW579, 3-day incubation, read-out: Cell Count IC50): 9.44 | Cell Count Activity Area (SW579; SW579, scale 0-10): 5.31 | Relative cell count (%) Mean (SW579; 1.00E+00 microM): 35.3% | Relative cell count (%) Mean (SW579; 1.00E−01 microM): 35.8% | Relative cell count (%) Mean (SW579; 1.00E−02 microM): 42.8% | Relative cell count (%) Mean (SW579; 1.00E−03 microM): 44.2% | Relative cell count (%) Mean (SW579; 1.01E−04 microM): 63.2% | Relative cell count (%) Mean (SW579; 3.16E−01 microM): 37.9% | Relative cell count (%) Mean (SW579; 3.17E−02 microM): 38.4% | Relative cell count (%) Mean (SW579; 3.17E−03 microM): 44.6% | Relative cell count (%) Mean (SW579; 3.18E−04 microM): 48.4% | Relative cell count (%) Mean (SW579; 3.18E−05 microM): 78.0%
